{"source": "patent US12090137B2", "about": "“Solid Δ9-tetrahydrocannabinol (Δ9-THC) compositions” (CANNA-C[…], priority 2020, dated 2024)", "experiment": "Flowable powder formation by freeze-drying (lyophilization), Example 1", "type": "physicochemical", "procedure": "The powder former (amount based on 1:1, 1:2 or 1:4 molar Δ^9-THC:powder former ratio) was dissolved in H2O (2 mL) and, if needed, dioxane (2 mL) was added to form a solution. The powder former solution was added to the Δ^9-THC solution in the round bottom flask. The round bottom flask was then submerged in a dry ice/acetone bath or liquid nitrogen to freeze the solution while continuously rotating the flask by hand to maximize surface area and form an even, thin layer around the flask. Once frozen, the round bottom flask was attached to a LabConco lyophilizer with an Edwards RV8 vacuum pump pre-equilibrated at ^˜−50° C. Samples were left overnight (18 hrs) and removed the next day.\nΔ^9-THC and several powder formers were lyophilized using the described procedure to determine if a flowable powder would result."}
{"smiles": "CCCCCc1cc(O)c2c(c1)OC(C)(C)[C@@H]1CCC(C)=C[C@@H]21", "note": "[Δ^9-THC, (−)-trans-Δ^9-tetrahydrocannabinol]", "values": [{"measurement": "Result of lyophilizing without a powder former", "setting": "from dioxane alone", "value": "gel"}, {"measurement": "Result of lyophilizing without a powder former", "setting": "from dioxane/water (~75/25 by volume)", "value": "tacky gel"}]}
